Activity calls are given as the source filed them. The rule behind the calls is not given here.
Legend:
Osteoblast = test: Osteogenic activity in neonatal Sprague-Dawley rat osteoblasts assessed as stimulation of alkaline phosphatase activity at 100 pM to 10 nM; assay type: functional, cell-based
Calvarial cell = test: Osteogenic activity in neonatal Sprague-Dawley rat calvarial cell culture assessed as stimulation of differentiation; assay type: functional, cell-based

Compound | Activity (Osteoblast) | Activity (Calvarial cell)
O=c1c(O)c(-c2ccc(O)c(O)c2)oc2cc(O)c([C@@H]3O[C@H](CO)[C@@H](O)[C@H](O)[C@H]3O)c(O)c12 | Active | Active
O=C1c2c(cc(O)c([C@@H]3O[C@H](CO)[C@@H](O)[C@H](O)[C@H]3O)c2O)O[C@@H](c2ccc(O)c(O)c2)[C@@H]1O | Active | Active
O=C1c2c(cc(O)c([C@@H]3O[C@H](CO)[C@@H](O)[C@H](O)[C@H]3O)c2O)O[C@@H](c2ccc(O)cc2)[C@@H]1O | Active | Active
O=C1C[C@H](c2ccc(O)cc2)Oc2cc(O)c([C@@H]3O[C@H](CO)[C@@H](O)[C@H](O)[C@H]3O)c(O)c21 | Active | Active
